System: SARS-CoV-2
Experiment: microbe, parasite or virus in culture
Settings: Severe acute respiratory syndrome coronavirus 2, Vero C1008, 48 h

Compound | IC50 [µM] | IC50 (read-out: pIC50 (converted)) [µM]
CCNC(C)Cc1cccc(C(F)(F)F)c1 (configuration not stated) [FENFLURAMINE] | > 20 | > 20
COC(=O)CCC(C)C1CCC2C3C(C[C@H](O)[C@]12C)[C@@]1(C)CC[C@@H](O)C[C@H]1C[C@H]3O (some centres not stated) | > 20 | > 20
Nc1ccc(S(=O)(=O)Nc2ccccn2)cc1 [SULFAPYRIDINE] | > 20 | > 20
CC(C(=O)O)c1ccc2oc(-c3ccc(Cl)cc3)nc2c1 (configuration not stated) [BENOXAPROFEN] | > 20 | > 20
CCN[C@H]1C[C@H](C)S(=O)(=O)c2sc(S(N)(=O)=O)cc21 [DORZOLAMIDE] | > 20 | > 20
COc1cc(C(=O)OC2CC3CCC(C2)N3C)ccc1O (configuration not stated) [FILLALBIN] | > 20 | > 20
Cc1cc(S(N)(=O)=O)ccc1NC(=O)COc1ccc(Cl)cc1C(=O)c1cc(Cl)cc(C#N)c1 | > 20 | > 20
COc1cccc([C@H]2C[C@@H](N[C@H](C)c3ccccc3)C(=O)N2c2ccc(C(F)(F)F)cc2)c1 [MEPPEP] | > 20 | > 20
C=C(C)C(=O)OCCCCCCCCCCCC | > 20 | > 20
CC(=O)OCC(=O)[C@@]12OC3(CCCC3)O[C@@H]1C[C@H]1[C@@H]3CCC4=CC(=O)C=C[C@]4(C)[C@@]3(F)[C@@H](O)C[C@@]12C [AMCINONIDE] | > 20 | > 20
CCC(N)C(O)c1ccc(O)c(O)c1 (configuration not stated) [ETHYLNOREPINEPHRINE] | > 20 | > 20
O=C1c2cccnc2OC[C@@H]2CCCN12 | > 20 | > 20
O=C(OCC(O)CO)c1ccccc1Nc1ccnc2cc(Cl)ccc12 (configuration not stated) [GLAFENINE] | > 20 | > 20
Nc1ccc(S(=O)(=O)O)cc1 | > 20 | > 20
CCCCC[C@H](O)/C=C/[C@H]1[C@H](O)CC(=O)[C@@H]1CCCCCCC(=O)O [ALPROSTADIL] | > 20 | > 20
O=C(O)c1ccccc1C(=O)Nc1ccc(S(=O)(=O)Nc2nccs2)cc1 [PHTHALYLSULFATHIAZOLE] | > 20 | > 20
CN(C)CCCC1c2ccccc2Nc2ccc(Cl)cc21 (configuration not stated) [CLOMACRAN] | > 20 | > 20
COC1=CC(=O)C=C(OC)C1=O [2,6-DIMETHOXYQUINONE] | > 20 | > 20
C=CC1CN2CCC1CC2C(O)c1ccnc2ccccc12 (configuration not stated) | > 20 | > 20
CC[C@]1(c2ccccc2)NC(=O)N(C)C1=O | > 20 | > 20
CCc1nc(N)nc(N)c1-c1ccc(Cl)c(Cl)c1 [ETOPRINE] | > 20 | > 20
c1coc(CNc2ncnc3[nH]cnc23)c1 [KINETIN] | > 20 | > 20

Compound | IC50 [µM] | IC50 (read-out: pIC50 (converted)) [µM]
O=c1cc(-c2ccc(O)cc2)oc2cc(O)cc(O)c12 [APIGENIN] | > 20 | > 20
COc1cc(/C=C/c2ccc(O)cc2)cc(OC)c1 [PTEROSTILBENE] | > 20 | > 20
Oc1cccc(O)c1 [RESORCINOL] | > 20 | > 20
CC(=O)N[C@H]1[C@H]([C@H](O)[C@H](O)CO)O[C@](O)(C(=O)O)C[C@@H]1O | > 50.1 | > 50.1
CC1(C)[C@H](C(=O)O)N2C(=O)C[C@H]2S1(=O)=O [SULBACTAM] | > 20 | > 20
N#Cc1cccc([C@H]2C=C(C(F)(F)F)NC3=C2C(=O)CCC3)c1 | > 20 | > 20
CN1C(=O)/C(=N/NC(N)=S)c2ccccc21 | > 20 | > 20
CC(O)C(=O)Nc1c(I)c(C(=O)NC(CO)CO)c(I)c(C(=O)NC(CO)CO)c1I (configuration not stated) | > 20 | > 20
CCC(=O)c1ccc(O)cc1 [PAROXYPROPIONE] | > 20 | > 20
CCOc1ccc(NC(C)=O)cc1 [PHENACETIN] | > 20 | > 20
CC(C)NC[C@H](O)COc1ccc(O)cc1 [PRENALTEROL] | > 20 | > 20
COC(=O)Nc1c(N)nc(-c2nn(Cc3ccccc3F)c3ncccc23)nc1N | > 20 | > 20
Cc1c(-c2ccccc2)oc2c(C(=O)OCCN3CCCCC3)cccc2c1=O [FLAVOXATE] | > 20 | > 20
Nc1nc(OC(c2ccc(-c3cccc(F)c3)cc2)C(F)(F)F)cc(-c2ccc(C[C@H](N)C(=O)O)cc2)n1 (some centres not stated) | > 20 | > 20
[N-]=[N+]=N[C@]1(CO)O[C@@H](n2ccc(N)nc2=O)[C@@H](F)[C@@H]1O [RO-0622] | > 20 | > 20
O=C1CN=C(c2ccccc2)c2cc([N+](=O)[O-])ccc2N1 [NITRAZEPAM] | > 20 | > 20
Cc1cnc2c(c1)CCCC2C(N)=S (configuration not stated) [TIQUINAMIDE] | > 20 | > 20
COC(=O)Nc1nc2cc(C(=O)c3ccccc3)ccc2[nH]1 [MEBENDAZOLE] | > 20 | > 20
O=C(c1ccc(F)cc1)C1CCN(CCn2c(=O)[nH]c3ccccc3c2=O)CC1 [KETANSERIN] | > 20 | > 20
CC(CC(c1ccccc1)c1ccccc1)N(C)C (configuration not stated) [TRIMETHYLDIPHENYLPROPYLAMINE] | > 20 | > 20
C[C@]12CCC(=O)C(O)=C1CC[C@@H]1[C@@H]2CC[C@]2(C)C(=O)CC[C@@H]12 [FORMESTANE] | > 20 | > 20
N[C@H]1CONC1=O [LEVCYCLOSERINE] | > 20 | > 20

Compound | IC50 [µM] | IC50 (read-out: pIC50 (converted)) [µM]
CC(=O)Nc1ncc([N+](=O)[O-])s1 [NITHIAMIDE] | > 20 | > 20
CC(=O)OCC1=C(C(=O)O)N2C(=O)[C@@H](N)[C@H]2SC1 | > 20 | > 20
CCCc1cc2c(O)c(C(=O)OC)cnc2cc1N(CC)CC [AMQUINATE] | > 20 | > 20
Nc1ccc(S(=O)(=O)Nc2ncccn2)cc1 [SULFADIAZINE] | > 20 | > 20
CCOC(=O)C(C)(C)Oc1ccc(Cl)cc1 [CLOFIBRATE] | > 20 | > 20
O=C1C=CC(=O)c2ccccc21 [NAPHTHOQUINONE] | > 20 | > 20
COc1ccc(-c2ccc(=N)n(CCCC(=O)O)n2)cc1 [GABAZINE] | > 20 | > 20
CN[C@@H](C)CC1CCCCC1 [LEVOPROPYLHEXEDRINE] | > 20 | > 20
CC(=O)C1C(=O)C=C(C)OC1=O (configuration not stated) [DEHYDROACETIC ACID] | > 20 | > 20
Nc1nc(N)c(-c2ccccc2)s1 [AMIPHENAZOLE] | > 20 | > 20
NCCCN | > 20 | > 20
CN[C@@H]1[C@@H](O)[C@@H](O[C@@H]2[C@@H](O)[C@H](O[C@H]3O[C@H]([C@@H](C)NC)CC[C@H]3N)[C@@H](N)C[C@H]2N)OC[C@]1(C)O [GENTAMICIN C1] | > 20 | > 20
CC1=C(C(=O)O)N2C(=O)[C@@H](NC(=O)[C@H](N)c3ccccc3)[C@H]2SC1 [CEPHALEXIN ANHYDROUS] | > 20 | > 20
CC(=O)OCC(=O)C1CCC2C3CC[C@H]4CC(O)CCC4(C)C3C(=O)CC12C (some centres not stated) | > 20 | > 20
CC(C)(Sc1cc(C(C)(C)C)c(O)c(C(C)(C)C)c1)Sc1cc(C(C)(C)C)c(O)c(C(C)(C)C)c1 [PROBUCOL] | > 20 | > 20
C=CCC1(C(C)CCC)C(=O)NC(=O)NC1=O (configuration not stated) [SECOBARBITAL] | > 20 | > 20
CCOC(=O)C1=C[C@@H](OC(CC)CC)[C@H](NC(C)=O)[C@@H](N)C1 [OSELTAMIVIR] | > 20 | > 20
O=C1CC2(CCCC2)CC(=O)N1CCCCN1CCN(c2ncccn2)CC1 [BUSPIRONE] | > 20 | > 20
C[C@@H]1NC(=O)CO[C@@H]1c1ccccc1 | > 20 | > 20
O=C(c1ccc(Oc2ccc(F)cc2)nc1)N1CCCN(C2CCC2)CC1 [JNJ-39220675] | > 20 | > 20
CC12CCC(=O)C=C1C=CC1C2CCC2(C)C1CCC2(O)CCC(=O)O (configuration not stated) | > 20 | > 20
Cc1cccc(-c2[nH]c(CNc3ccccc3F)nc2-c2ccc3ncnn3c2)n1 [VACTOSERTIB] | > 20 | > 20
